Source: patent US8546421B1, “Oncogenic-RAS-signal dependent lethal compounds” (The Trustees of Columbia University in the City of New York, priority 2007, dated 2013)
≈ marks a conversion by molar mass, not a printed value.

Legend:
[1] = system: PARP-1 cleavage in BJ-TERT/LT/ST/RAS^V12 cells; assay: Western blot of PARP-1 cleavage upon compound treatment; type: cell-based, human; details: Western blot with anti-PARP-1 antibody
Protocol: 2×10^6 BJ-TERT/LT/ST/RAS^V12 cells were seeded in 10 cm dishes and treated with 1 μM staurosporine, 10 μg/mL erastin, 20 μg/mL Compound 3, and 1 μg/mL Compound 27 for 16 h. Both dying cells and live cells in each 10 cm dish were harvested and collected in the same 15 mL tubes by centrifuging cell suspension at 1,000 rpm for 5 min. Cell pellets were washed three times with PBS and cells were lysed in 200 μL of denaturing lysis buffer (50 mM HEPES KOH [pH 7.4], 40 mM NaCl, 2 mM EDTA, 1.5 mM Na3VO4, 50 mM NaF, 10 mM sodium pyrophosphate, 10 mM sodium β-glycerophosphate, 0.5% Triton X-100, and protease inhibitor tablet [Roche, cat.#11836170001]). Protein content was quantified using a Bio-Rad protein assay reagent (Bio-Rad, cat.#500-00006). Equal amounts of protein were resolved on SDS-polyacrylamide gels. The electrophoresed proteins were transblotted onto a PVDF membrane, blocked with 5% milk, and incubated with rabbit primary antibodies specific to: PARP (Santa Cruz, cat.#sc-7150), cleaved caspase-3 (Cell Signaling Technology, cat.#9661) overnight at 4° C. The membrane was then incubated in IRDye 800 goat anti-rabbit antibody (Li-cor Bioscience cat.#926-32211) at 1:3,000 dilutions for 45 min at room temperature. After washing off the unbound antibodies, membranes were scanned using the Odyssey™ Imaging System (Li-cor Bioscience).

[2] = system: HT1080-TfR1KD cells; assay: Drug sensitivity after shRNA knockdown of TfR1; type: cell-based, human; details: alamar blue
Protocol: On day one, 3×10^5 Calu-1 cells or 2×10^5 HT1080 cells were seeded in 10-cm dishes; on day 2, frozen virus stock was thawed at 37° C., hexadimethrine bromide (polybrene) (Sigma, cat.#H9268) was added to the virus solution at a final concentration of 8 μg/mL and growth media from cell culture was replaced with the virus/polybrene mixture. The culture was returned to the tissue culture incubator for 2 hours, with rocking of the dishes every 30 min in order to prevent drying. After 2 h, 10 mL growth medium was added, the culture was incubated for 2 days, and cells stably expressing shRNA were selected by adding puromycin (Sigma, cat.#P9620) at a final concentration of 1.5 μg/mL.
On the day of experiment, assay plates were prepared by seeding 3,000 HT1080, HT1080-pLKO, HT1080-TfR1 KD, Calu-1, Calu-1-pLKO, or Calu-1-509 cells per well in 36 μL of growth media to black, clear bottom 384-well plates. Also, assay plates were prepared by seeding 1,500 shRNA infected HT1080 or Calu-1 cells per well. Cells in assay plates were treated with each lethal compound in a 2-fold dilution series by transferring 4 μL solution from a 10× lethal plate of Erastin, Compound 3, Compound 27, or Compound 36. […] Percent growth inhibition (% GI) was calculated using fluorescence intensity values.

[3] = system: UACC-257; assay: NCI60 anti-cancer screening; details: for GI50 / CC50: Homo sapiens; for GI50 / GI 100%: UACC-257; for CC50: UACC-257, read-out: LC 50%; for GI 100%: Melanoma
[4] = system: MALME-3M; assay: NCI60 anti-cancer screening; details: for GI50 / CC50: Homo sapiens, Malme-3M; for CC50: read-out: LC 50%; for GI 100%: MALME-3M, Melanoma
[5] = system: Calu-1; assay: Alamar Blue assay, additional cell lines; type: cell-based, human; details: for Maximum Inhibition % / GI50: Calu-1, Non-small cell lung carcinoma, Alamar Blue
Source text: (§1) The results of this additional testing are summarized in Tables 7-10 (no additional cell lines were identified as sensitive for Compound 3). […] The tumor type, cell line, maximum percentage inhibition, the concentration of compound required to inhibit cell growth by 50%, and RAS mutation (if any) are also summarized.

[6] = system: PaCa-2; assay: Alamar Blue assay, additional cell lines; type: cell-based, human; details: Pancreatic Cancer; for GI50: Homo sapiens
Source text: as §1

[7] = system: PC-3; assay: NCI60 anti-cancer screening; details: for GI50 / CC50: Homo sapiens; for GI50 / GI 100%: PC-3; for CC50: PC-3, read-out: LC 50%; for GI 100%: Prostate Cancer
[8] = system: OVCAR-3; details: Ovarian Cancer
[9] = system: KM12; assay: NCI60 anti-cancer screening; details: for GI50 / CC50: Homo sapiens; for GI50 / GI 100%: KM12; for CC50: KM12, read-out: LC 50%; for GI 100%: Colon Cancer
[10] = system: NCI-H322M; assay: NCI60 anti-cancer screening; details: for GI50 / CC50: Homo sapiens; for CC50: read-out: LC 50%; for GI 100%: Non-small cell lung carcinoma
[11] = system: IGROV1; assay: NCI60 anti-cancer screening; details: for GI50 / CC50: Homo sapiens; for GI50: IGROV-1; for CC50: IGROV-1, read-out: LC 50%; for GI 100%: IGROV1, Ovarian Cancer
[12] = system: HCC-2998; assay: NCI60 anti-cancer screening; details: for GI 100%: HCC-2998, Colon Cancer; for GI50 / CC50: Homo sapiens; for GI50: HCC 2998; for CC50: HCC 2998, read-out: LC 50%
[13] = system: SK-OV-3; assay: NCI60 anti-cancer screening; details: for GI50 / CC50: Homo sapiens; for GI50 / GI 100%: SK-OV-3; for CC50: SK-OV-3, read-out: LC 50%; for GI 100%: Ovarian Cancer
[14] = system: EKVX; assay: NCI60 anti-cancer screening; details: for GI50 / CC50: Homo sapiens; for CC50: read-out: LC 50%; for GI 100%: Non-small cell lung carcinoma
[15] = system: SF-295; assay: NCI60 anti-cancer screening; details: for GI50 / CC50: Homo sapiens; for GI50 / GI 100%: SF-295; for CC50: SF-295, read-out: LC 50%; for GI 100%: CNS Cancer
[16] = system: CAKI-1; assay: NCI60 anti-cancer screening; details: for GI 100% / GI50: CAKI-1; for GI 100%: Renal Cancer; for GI50 / CC50: Homo sapiens; for CC50: CAKI-1, read-out: LC 50%
[17] = system: HCT-15; assay: NCI60 anti-cancer screening; details: for GI 100% / GI50: HCT-15; for GI 100%: Colon Cancer; for GI50 / CC50: Homo sapiens; for CC50: HCT-15, read-out: LC 50%
[18] = system: U251; assay: NCI60 anti-cancer screening; details: for GI50 / CC50: Homo sapiens; for GI50: U-251; for CC50: U-251, read-out: LC 50%; for GI 100%: U251, CNS Cancer

## COCCOC(=O)C1=C(C)NC2=C(C(=O)CC(c3ccc(Cl)cc3)C2)C1c1ccccc1F (stereo not drawn) [Compound 3]
[1]
  PARP-1 cleavage / type of cell death: activate a non-apoptotic pathway
[2]
  sensitivity of HT1080-TfR1KD cells compared with parental HT1080: decreased sensitivity

## CCc1c(O)c2c(c(O)c1O[C@H]1O[C@@H](COC(C)=O)[C@H](OC(C)=O)[C@@H](CC(C)=O)[C@@H]1OC(C)=O)C(=O)C(O[C@@H]1O[C@H](COC(C)=O)[C@@H](OC(C)=O)[C@H](OC(C)=O)[C@H]1OC(C)=O)=C(O[C@@H]1O[C@H](COC(C)=O)[C@@H](OC(C)=O)[C@H](OC(C)=O)[C@H]1OC(C)=O)C2=O [Compound 6]
[3]
  GI50: 2780 nM
  CC50: > 10000 nM
  GI 100%: >10 µM
[4]
  GI50: 261 nM
  CC50: 2800 nM
  GI 100%: 0.723 µM
[5]
  Maximum Inhibition %: 100%
[5]; Homo sapiens
  GI50: 2500 nM
[6]
  GI50: 600 nM
  Maximum Inhibition %: 100%
[7]
  GI50: 5070 nM
  CC50: > 10000 nM
  GI 100%: >10 µM
[8]
  GI 100%: >10 µM
[9]
  GI50: 5200 nM
  CC50: > 10000 nM
  GI 100%: >10 µM

## C=C1CCC2C(C)(C)CCC[C@]2(C)C1CC/C(C)=C\CC/C(C)=N/NC(N)=S (stereo partly drawn) [Compound 36]
[3]
  GI50: 1260 nM
  CC50: 6990 nM
  GI 100%: 2.97 µM
[4]
  GI50: 550 nM
  CC50: 4570 nM
  GI 100%: 1.83 µM
[10]
  GI50: 606 nM
  CC50: 4930 nM
  GI 100%: 1.99 µM
[5]
  Maximum Inhibition %: 100%
[5]; Homo sapiens
  GI50: 300 nM
[6]
  GI50: 1500 nM
  Maximum Inhibition %: 100%
[7]
  GI50: 548 nM
  CC50: 4260 nM
  GI 100%: 1.82 µM
[11]
  GI50: 254 nM
  CC50: 4170 nM
  GI 100%: 1.28 µM
[12]
  GI 100%: 0.733 µM
  GI50: 240 nM
  CC50: 2680 nM
[13]
  GI50: 1260 nM
  CC50: 5200 nM
  GI 100%: 2.56 µM
[14]
  GI50: 1240 nM
  CC50: 5090 nM
  GI 100%: 2.51 µM
[8]
  GI 100%: 0.804 µM
[15]
  GI50: 1190 nM
  CC50: 5330 nM
  GI 100%: 2.52 µM
[16]
  GI 100%: 0.413 µM
  GI50: 165 nM
  CC50: 1080 nM
[2]
  sensitivity of HT1080-TfR1KD cells compared with parental HT1080: decreased sensitivity
[17]
  GI 100%: 1.53 µM
  GI50: 305 nM
  CC50: 3930 nM
[18]
  GI50: 470 nM
  CC50: 4120 nM
  GI 100%: 1.7 µM
[9]
  GI50: 469 nM
  CC50: 4470 nM
  GI 100%: 1.8 µM

## COC(=O)c1ccc(C2c3[nH]c4ccccc4c3CC(C(=O)OC)N2C(=O)CCl)cc1 (stereo not drawn) [Compound 27]
[3]
  GI50: 1370 nM
  CC50: > 10000 nM
  GI 100%: 7.46 µM
[4]
  GI50: 406 nM
  CC50: 4600 nM
  GI 100%: 1.53 µM
[10]
  GI50: 3600 nM
  CC50: > 10000 nM
  GI 100%: >10 µM
[5]
  Maximum Inhibition %: 100%
[5]; Calu-1 cells, alamar blue
  IC90 (in words): single-digit nanomolar range
[5]; Homo sapiens
  GI50: 1 nM
[5]; Homo sapiens, Calu-1 cells, treated for 24 hour, alamar blue
  IC50: 0.02 µg/mL (≈ 0.0454 µM)
[6]
  GI50: 125 nM
  Maximum Inhibition %: 100%
[7]
  GI50: 231 nM
  CC50: 3290 nM
  GI 100%: 1.08 µM
[1]
  PARP-1 cleavage / type of cell death: activate a non-apoptotic pathway
[11]
  GI50: 20.9 nM
  CC50: 270 nM
  GI 100%: 0.0571 µM
[12]
  GI 100%: 5.1 µM
  GI50: 2010 nM
  CC50: > 10000 nM
[13]
  GI50: 1680 nM
  CC50: 6670 nM
  GI 100%: 3.34 µM
[14]
  GI50: 2310 nM
  CC50: > 10000 nM
  GI 100%: 5.63 µM
[8]
  GI 100%: 1.57 µM
[15]
  GI50: 1100 nM
  CC50: 8060 nM
  GI 100%: 2.97 µM
[16]
  GI 100%: 0.0381 µM
  GI50: 21.1 nM
  CC50: 68.7 nM
[17]
  GI 100%: 2.83 µM
  GI50: 1450 nM
  CC50: 5540 nM
[18]
  GI50: 1100 nM
  CC50: 4790 nM
  GI 100%: 2.3 µM
[9]
  GI50: 188 nM
  CC50: 4150 nM
  GI 100%: 1.19 µM
